Test results from paper PMC3076311 (Nature structural & molecular biology, 2011).

Molecular target: TcdB CPD E753R R745E (Clostridioides difficile, UniProt P18177, E753R/R745E)
Assay type: biochemical, Clostridium difficile

For inositol hexakisphosphate [InsP6], the “factor by which activity is decreased relative to wildtype TcdB CPD” value was 23.
